Like-named read-outs stand apart in the source and are kept apart here.

Broadly, the half-life is the time in which the quantity being followed falls by half.

Data set [1] is described as follows: Pharmacokinetics of BrEA after subcutaneous dose in rats. Conditions: for half-life: rat, plasma, sc, biphasic elimination. In kind it is in vivo. Here is the method:
BrEA was administered subcutaneously to rats using the formulation of example 1. Approximately 90% of the drug left the injection site within 24 hours of administration, and reached a maximum concentration in the plasma of about 0.2% of the injected dose at one hour post administration. Elimination from the plasma was biphasic, with half-lives of about 12 and 72 hours respectively. […] A study is also performed in Rhesus Monkeys with the example 1 formulation to determine plasma pharmacokinetics.

Another data set relates to HCV. Briefly: HCV level by PCR in HIV/HCV infected patient dosed I.V. with BrEA. The class given is in vivo. Conditions: predosing 6.5. Here is the method: A patient infected with HIV and HCV was dosed I.V. with BrEA for 3 consecutive days using a formulation that contained 20 mg/mL BrEA in 45% w/v hydroxypropyl-β-cyclodextrin and saline. Four mL of the formulation (80 mg BrEA) was administered to the patient every 4 hours during the 3 day treatment period. The patient's predosing HCV level was 6.5 Log10 as measured by PCR and the HCV level was 6.2 Log10 on the first day of dosing, 5.5 Log10 on the 3rd day of dosing and 4.9 Log10 three days after the last dose was administered. HIV RNA levels as measured by PCR was 5.2 Log10 (predosing), 5.8 Log10 (first day), 5.9 Log10 (third day) and 5.4 Log10 (day 6). The NK cell counts (cells/mm^3) were 28, 41 and 38 at predosing, day 0 and day 3.

On to `C[C@]12CC[C@H](O)C[C@@H]1CC[C@@H]1[C@@H]2CC[C@]2(C)C(=O)[C@H](Br)C[C@@H]12` [BrEA, 16α-bromo-3β-hydroxy-5α-androstane-17-one], for which the half-life was roughly 12 h in data set [1] (rats s.c., read-out: plasma elimination half-life, first phase (converted)) and roughly 72 h in data set [1] (rats s.c., read-out: plasma elimination half-life, second phase (converted)). Further, in data set [1] (rats s.c.), the accumulation in organs entry is reported as “did not accumulate to a significant extent in any major organ”. For the same compound, the route of excretion result in data set [1] (rats s.c.) was “excreted primarily in the feces”. The “time of maximum concentration in the plasma” value in data set [1] (rats s.c.) is recorded as “one”. In addition, the “maximum concentration in the plasma” value in data set [1] (rats s.c., at one hour post administration) is recorded as “about 0.2 % of the injected dose”. Besides, the “drug left the injection site” value in data set [1] (rats, subcutaneous, formulation of example 1, within 24 hours) is given as “Approximately 90%”. The “HCV level by PCR” value was 5.5 Log10 with HCV (3rd day of dosing); 6.2 Log10 in the data set with HCV (first day of dosing, 80 mg I.V. every 4 hours for 3 days); 4.9 Log10 with HCV (three days after the last dose).

(Values after US20070275936A1, “Formulations and Treatment Methods” (priority 1998, published 2007).)
